The record followed here is ChEMBL document CHEMBL1926648, “Synthesis and biological activity of dihydroimidazole and 3,4-dihydrobenzo[4,5]imidazo[1,2-a][1,3,5]triazins” (2012).

What all share (format): functional
What all share (settings): read-out: IZ

Test [1] has as its system Escherichia coli. Briefly: Antibacterial activity against Escherichia coli at 10000 ppm after 24 hrs by agar diffusion method. (In general: A growth-free zone around the sample is the usual read-out of agar diffusion tests.)
Test [2] has as its system Micrococcus luteus. The test is described as follows: Antibacterial activity against Micrococcus luteus at 30000 ppm after 24 hrs by agar diffusion method.
The subject of test [3] is Pseudomonas aeruginosa. Briefly: Antibacterial activity against Pseudomonas aeruginosa at 50000 ppm after 24 hrs by agar diffusion method.
In test [4] the test system is Pseudomonas aeruginosa. The test is described as follows: Antibacterial activity against Pseudomonas aeruginosa at 30000 ppm after 24 hrs by agar diffusion method.
Test [5] deals with Escherichia coli. Briefly: Antibacterial activity against Escherichia coli at 50000 ppm after 24 hrs by agar diffusion method.
The subject of test [6] is Pseudomonas aeruginosa. The test is described as follows: Antibacterial activity against Pseudomonas aeruginosa at 10000 ppm after 24 hrs by agar diffusion method.
The subject of test [7] is Bacillus subtilis. Briefly: Antibacterial activity against Bacillus subtilis at 30000 ppm after 24 hrs by agar diffusion method.
Test [8] has as its system Kocuria rosea. Briefly: Antibacterial activity against Micrococcus roseus at 10000 ppm after 24 hrs by agar diffusion method.
Test [9] deals with Bacillus cereus. Briefly: Antibacterial activity against Bacillus cereus at 10000 ppm after 24 hrs by agar diffusion method.
The subject of test [10] is Bacillus subtilis. Briefly: Antibacterial activity against Bacillus subtilis at 10000 ppm after 24 hrs by agar diffusion method.
In test [11] the test system is Kocuria rosea. Briefly: Antibacterial activity against Micrococcus roseus at 30000 ppm after 24 hrs by agar diffusion method.
For test [12], the system named is Staphylococcus aureus. Briefly: Antibacterial activity against Staphylococcus aureus at 10000 ppm after 24 hrs by agar diffusion method.
Test [13] concerns Staphylococcus aureus. The test is described as follows: Antibacterial activity against Staphylococcus aureus at 50000 ppm after 24 hrs by agar diffusion method.
The test system of test [14] is Bacillus cereus. The test is described as follows: Antibacterial activity against Bacillus cereus at 30000 ppm after 24 hrs by agar diffusion method.
Test [15] relates to Kocuria rosea. The test is described as follows: Antibacterial activity against Micrococcus roseus at 50000 ppm after 24 hrs by agar diffusion method.
Test [16] relates to Bacillus subtilis. The test is described as follows: Antibacterial activity against Bacillus subtilis at 50000 ppm after 24 hrs by agar diffusion method.
Test [17] relates to Micrococcus luteus. Briefly: Antibacterial activity against Micrococcus luteus at 10000 ppm after 24 hrs by agar diffusion method.
For test [18], the system named is Micrococcus luteus. The test is described as follows: Antibacterial activity against Micrococcus luteus at 50000 ppm after 24 hrs by agar diffusion method.
For test [19], the system named is Escherichia coli. Briefly: Antibacterial activity against Escherichia coli at 30000 ppm after 24 hrs by agar diffusion method.
Test [20] relates to Staphylococcus aureus. Briefly: Antibacterial activity against Staphylococcus aureus at 30000 ppm after 24 hrs by agar diffusion method.
Test [21] concerns Bacillus cereus. Briefly: Antibacterial activity against Bacillus cereus at 50000 ppm after 24 hrs by agar diffusion method.

Each structure is given as a SMILES string.

As for `N#Cc1[nH]/c(=N/c2nc3ccccc3[nH]2)[nH]c1N`, the zone of inhibition at 10000 ppm in test [1] was determined as 8 mm; in test [6], 6 mm; in test [8] it was 4 mm; in test [9], 6 mm; in test [10] it was 8 mm; in test [12] it was 3 mm. Further, the zone of inhibition at 10000 ppm in test [17] worked out at 4 mm. The zone of inhibition at 30000 ppm in test [2] was 7 mm; in [4] it was 8 mm; in [7], 11 mm; in [11], 7 mm; in [14], 10 mm; in test [19] it was 13 mm. Moreover, in [20], the zone of inhibition at 30000 ppm was 7 mm. Moreover, the zone of inhibition at 50000 ppm was determined as 9 mm in test [3]; 19 mm in test [5]; 7 mm in test [13]; 9 mm in test [15]; 16 mm in test [16]; 9 mm in [18]. The zone of inhibition at 50000 ppm in test [21] came out at 14 mm.
As to `NC1=Nc2nc3ccccc3n2C2(NC(=O)CS2)N1` (stereo not given), the zone of inhibition at 30000 ppm in test [2] worked out at 3 mm; in test [4], 8 mm; in [7], 13 mm; in test [11], 7 mm; in test [14], 8 mm; in test [19] it was 5 mm. For the same compound, the zone of inhibition at 30000 ppm in [20] stood at 5 mm. Besides, the zone of inhibition at 50000 ppm in test [3] was 11 mm; in test [5], 8 mm; in test [13], 8 mm; in test [15], 10 mm; in test [16] it was 16 mm; in [18], 7 mm. For the same compound, the zone of inhibition at 50000 ppm in test [21] stood at 11 mm. Moreover, the zone of inhibition at 10000 ppm was 5 mm in [6]; 4 mm in [8]; 6 mm in [9]; 9 mm in test [10]; 3 mm in test [12].
